Results as given in ChEMBL document CHEMBL1121467, “Prostaglandins and congeners. 25. Inhibition of gastric acid secretion. Replacement of the carboxylate moiety of a prostaglandin with a hydroxymethylketo functional group” (1980).

Experiments:
Canis familiaris [1] = test: Inhibition of gastric acid secretion (cumulative 75 min) in the dog fistula preparation was measured as acid output, after intragastric administration of 10 ug/kg; format: functional, Canis lupus familiaris, Stomach
Canis familiaris [2] = test: Inhibition of gastric acid secretion (cumulative 75 min) in the dog fistula preparation was measured as total volume, after intragastric administration of 10 ug/kg; format: functional, Canis lupus familiaris, Stomach

Structure (SMILES) | Acid output (Canis familiaris [1]) | Volume (Canis familiaris [2]) [mL]
CCCCC(C)(O)C/C=C/C1[C@H](O)CC(=O)[C@@H]1CCCCCCC(=O)CO (some centres undefined) | 6.9 m equiv [H+] l-1 | 59
CCCCC(C)(O)C/C=C/C1[C@H](O)CC(=O)[C@@H]1C/C=C/CCCC(=O)CO (some centres undefined) | 7.5 m equiv [H+] l-1 | 76
